The values below come from ChEMBL document CHEMBL1201862, “PubChem BioAssay data set” (2004).

Test systems include SK-MEL-2; LOX IMVI; SF-295; RPMI-8226; HCC 2998; T47D; SNB-19; U-251; NCI-H460; Malme-3M; SW-620; A549; SK-MEL-28; MOLT-4; MDA-N; UO-31; SNB-75; EKVX; COLO 205.
What all share (experiment): NCI tumour cell line growth inhibition, 48 h

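These data come from cells grown in 96-well plates and exposed to compound for 48 hours at five concentrations. The concentration for 50% growth inhibition is given as GI50.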 The source made the active and inactive calls. Rule as the data show it: active = GI50 up to about 1.1 µM and inactive = higher.

For the molecule `COc1ccc(NC(C)=O)cc1N1C(=O)/C(=C\c2cccc(Oc3ccccc3)c2)SC1c1ccccc1` (configuration not stated), the GI50 is 30.5 µM (inactive) in the experiment on SK-MEL-2; 13.4 µM (inactive) with LOX IMVI; 28.4 µM (inactive) in the experiment on SF-295; 17.4 µM (inactive) with RPMI-8226; 36.1 µM (inactive) in the experiment with HCC 2998; 23.4 µM (inactive) in the experiment with T47D. Moreover, the GI50 in the experiment with SNB-19 is 69.3 µM (inactive); in the experiment on U-251 it was 25.8 µM (inactive); with NCI-H460, 36.4 µM (inactive); in the experiment on Malme-3M, 65.6 µM (inactive); in the experiment on SW-620, 21.6 µM (inactive); with A549 it was 40.4 µM (inactive). The GI50 is 28.3 µM (inactive) in the experiment with SK-MEL-28; 10.1 µM (inactive) with MOLT-4; 26.2 µM (inactive) in the experiment on MDA-N; 17.3 µM (inactive) with UO-31; 38.6 µM (inactive) with SNB-75; 33.3 µM (inactive) with EKVX. Besides, the GI50 in the experiment on COLO 205 was 19.4 µM (inactive).

In the case of `CCOC(=O)C1(Cc2ccc(C)cc2)Cc2ccc(C)cc2C1=O` (configuration not stated), the GI50 was 14.6 µM (inactive) with SK-MEL-2; 12.4 µM (inactive) in the experiment on LOX IMVI; 15.4 µM (inactive) in the experiment on SF-295; 12.2 µM (inactive) in the experiment with RPMI-8226; 16.8 µM (inactive) in the experiment on HCC 2998; 12.4 µM (inactive) in the experiment on T47D. Further, the GI50 in the experiment on SNB-19 was 36.6 µM (inactive); in the experiment on U-251 it was 10 µM (inactive); in the experiment with NCI-H460, 27.9 µM (inactive); in the experiment on Malme-3M, 16.4 µM (inactive); in the experiment on SW-620 it was 4.71 µM (inactive); with A549 it was 20.9 µM (inactive). The GI50 in the experiment with SK-MEL-28 was 20.2 µM (inactive); in the experiment with MOLT-4, 4.23 µM (inactive); in the experiment with MDA-N, 2.38 µM (inactive); in the experiment on UO-31, 38.5 µM (inactive); with SNB-75, 24.3 µM (inactive); in the experiment with EKVX it was 36.7 µM (inactive). For the same molecule, the GI50 in the experiment on COLO 205 is 11.7 µM (inactive).

For `CN(CCN(C)Cc1ccc(Cl)c(Cl)c1)CCN1CCCC1`, the GI50 with SK-MEL-2 is 24.2 µM (inactive); in the experiment with LOX IMVI, 13.4 µM (inactive); with SF-295 it was 26.1 µM (inactive); with RPMI-8226, 7.71 µM (inactive); in the experiment with HCC 2998, 14.5 µM (inactive); in the experiment with T47D, 57.9 µM (inactive). Further, the GI50 was > 49.3 µM (inactive) in the experiment with SNB-19; 21.3 µM (inactive) in the experiment on U-251; 27.5 µM (inactive) with NCI-H460; 19.7 µM (inactive) with Malme-3M; 24.3 µM (inactive) in the experiment with SW-620; 22.6 µM (inactive) in the experiment with A549. In addition, the GI50 is 6.78 µM (inactive) in the experiment with SK-MEL-28; 9.33 µM (inactive) with MOLT-4; 13.2 µM (inactive) in the experiment with MDA-N; 11.6 µM (inactive) with UO-31; 26 µM (inactive) with SNB-75; > 64 µM (inactive) in the experiment with EKVX. In the experiment with COLO 205, the GI50 is 19.2 µM (inactive).

In the case of `N#CCc1nc(-c2cc3ccccc3oc2=O)cs1`, the GI50 is 25.4 µM (inactive) in the experiment with SK-MEL-2; 56.9 µM (inactive) in the experiment on LOX IMVI; 72.6 µM (inactive) in the experiment with SF-295; 33.7 µM (inactive) with RPMI-8226; > 100 µM (inactive) in the experiment on HCC 2998; 40.1 µM (inactive) with T47D. Further, the GI50 with SNB-19 was > 100 µM (inactive); with U-251 it was > 100 µM (inactive); in the experiment on NCI-H460, 75.2 µM (inactive); in the experiment on Malme-3M, 65.8 µM (inactive); in the experiment on SW-620 it was > 100 µM (inactive); with A549, > 100 µM (inactive). Further, the GI50 is 37.3 µM (inactive) in the experiment with SK-MEL-28; 16.6 µM (inactive) in the experiment on MOLT-4; 37.2 µM (inactive) with MDA-N; 40.4 µM (inactive) in the experiment with UO-31; 19.1 µM (inactive) in the experiment with SNB-75; 41.4 µM (inactive) with EKVX. Besides, the GI50 with COLO 205 was 67.3 µM (inactive).

Regarding `O=C1c2c(ccc3c2CCC3)CC12Cc1cc3c(cc1C2)CCC3`, the GI50 in the experiment with SK-MEL-2, with LOX IMVI, in the experiment on SF-295, in the experiment with RPMI-8226, in the experiment on HCC 2998 and in the experiment on T47D was > 100 µM (inactive) each time. Further, the GI50 with SNB-19 is > 100 µM (inactive); in the experiment with U-251 it was 70.3 µM (inactive); with NCI-H460, > 100 µM (inactive); in the experiment on Malme-3M, 20.1 µM (inactive); in the experiment with SW-620, > 100 µM (inactive); with A549, > 100 µM (inactive). The GI50 with SK-MEL-28 was > 100 µM (inactive); in the experiment on MOLT-4 it was > 100 µM (inactive); in the experiment on MDA-N, > 100 µM (inactive); with UO-31 it was > 100 µM (inactive); in the experiment with SNB-75 it was 87.7 µM (inactive); in the experiment with EKVX, > 100 µM (inactive). In addition, the GI50 in the experiment on COLO 205 was > 100 µM (inactive).

`COC(=O)CCCC(=O)/C(=N\Nc1ccc(Cl)cc1)Nc1c(Cl)cccc1Cl`: the GI50 with SK-MEL-2 was 24.6 µM (inactive); in the experiment on LOX IMVI, 64.1 µM (inactive); with SF-295 it was 35.2 µM (inactive); in the experiment with RPMI-8226 it was 21.8 µM (inactive); in the experiment with HCC 2998, 58.7 µM (inactive); in the experiment on T47D, > 46.5 µM (inactive). Also, the GI50 with SNB-19 is 35.7 µM (inactive); in the experiment with U-251 it was 55.5 µM (inactive); with NCI-H460 it was 26.7 µM (inactive); with Malme-3M, 97.1 µM (inactive); with SW-620 it was > 100 µM (inactive); in the experiment with A549 it was 24.3 µM (inactive). In addition, the GI50 in the experiment on SK-MEL-28 is > 89.3 µM (inactive); with MOLT-4 it was 26 µM (inactive); in the experiment on MDA-N it was > 84.5 µM (inactive); in the experiment on UO-31, 34.4 µM (inactive); in the experiment with SNB-75 it was 27.5 µM (inactive); with EKVX it was 51.8 µM (inactive). Also, the GI50 in the experiment on COLO 205 was 22.7 µM (inactive).

With `O=C(NC1=C(Cl)C(=O)c2ccccc2C1=O)C(=O)c1c(O)c2ccccc2oc1=O`, the GI50 was 2.32 µM (inactive) in the experiment on SK-MEL-2; 2 µM (inactive) in the experiment on LOX IMVI; 2.46 µM (inactive) in the experiment on SF-295; 6.19 µM (inactive) with RPMI-8226; 8.11 µM (inactive) in the experiment on HCC 2998; 4.83 µM (inactive) with T47D. For the same molecule, the GI50 in the experiment with SNB-19 was 4.6 µM (inactive); with U-251 it was 5.74 µM (inactive); in the experiment on NCI-H460 it was 2.54 µM (inactive); with Malme-3M, 1.07 µM (active); with SW-620, 5.22 µM (inactive); in the experiment with A549, 2.33 µM (inactive). Further, the GI50 in the experiment on SK-MEL-28 is 2.39 µM (inactive); in the experiment with MOLT-4 it was 4.65 µM (inactive); in the experiment with MDA-N, 1.37 µM (inactive); with UO-31, 7.66 µM (inactive); with SNB-75, 5.14 µM (inactive); in the experiment with EKVX it was 9.42 µM (inactive). Moreover, the GI50 in the experiment with COLO 205 was 5.87 µM (inactive).

Consider `C=CCN1C(=O)/C(=C/c2ccc(C)cc2)N=C1SC/C=C/C`, for which the GI50 is 24.8 µM (inactive) with SK-MEL-2; 19.6 µM (inactive) in the experiment on LOX IMVI; 36.8 µM (inactive) in the experiment on SF-295; 14.5 µM (inactive) in the experiment with RPMI-8226; 41.7 µM (inactive) in the experiment with HCC 2998; 16.3 µM (inactive) with T47D. Also, the GI50 in the experiment with SNB-19 is 15.5 µM (inactive); in the experiment on U-251, 27.2 µM (inactive); in the experiment with NCI-H460 it was 40.3 µM (inactive); in the experiment with Malme-3M it was 32.1 µM (inactive); in the experiment on SW-620 it was 39.4 µM (inactive); with A549, 21 µM (inactive). The GI50 is 50.6 µM (inactive) with SK-MEL-28; 14.8 µM (inactive) in the experiment with MOLT-4; 22.8 µM (inactive) with MDA-N; 47.3 µM (inactive) with UO-31; 17.8 µM (inactive) with SNB-75; 27 µM (inactive) in the experiment with EKVX. For the same molecule, the GI50 with COLO 205 was 36.5 µM (inactive).
